In patent US9581587B2, “Sperm staining and sorting methods” (INGURAN, LLC, priority 2011, dated 2017):

Experiments:
sperm [1] = test: Split quality, dead quenching dye combined with split enhancing dye (Example 7); type: cell-based, Jersey bull
Method: A single Jersey bull was collected at an initial sperm concentration 1810×10^6 sperm/ml in a volume of 3.9 ml. […] Samples were split into two equal aliquots and in one of each pair of samples, a stock solution of phenol red was added to make a final phenol red concentration of 620 μM. […] At each concentration, one control was compared to the addition of phenol red as a split enhancing dye at a concentration of 620 μM. Sorting was performed on a MoFlo SX (Beckman Coulter, USA) in substantially the same manner described in Example 5. After calibration, screen shots of sorting histograms were taken and split quality was measured by the peak to valley ration in the same way described in Example 5. The resulting data is found in Table 15.

sperm [2] = test: Split quality, phenol red as added split enhancing dye (Example 8); type: cell-based, bulls (Jersey, Holstein)
Method: Two bulls were collected for the Example 8. The Bull 1 was a Jersey bulls and Bull 2 was a Holstein collected substantially in the manner described in example 1. Sperm from Bull 1 extended to 160 million per with a first buffer, (TALP described in table 1 at a pH 7.4) and divided into two groups for staining. The first group was stained with 44 μM Hoechst 33342 and the second group was stained with 60 μM Hoechst 33342. Similarly, bull 2 was suspended to 160 million per mL the first buffer, (TALP described in table 1 at a pH 7.4) and divided into three groups for staining. The first group was stained with 28 μM Hoechst 33342 and the second group was stained with 44 μM Hoechst 33342 and the third group was stained with 66 μM Hoechst 33342. Each group was incubated for 1 hour at 34° C. and then extended in an equal volume of the second buffer. […] The stained samples were each treated with a variety of quenching dyes and combinations of quenching dyes indicated in below. […] After calibration, screen shots of sorting histograms were taken and histograms split quality was measured as a peak to valley ratio in the same way described in Example 5 with reference to FIG. 4 and the resulting data is found in Table 16.

sperm [3] = test: Post thaw motility of sorted sperm on CASA (Example 4); type: cell-based, canine; details: for Progressive / Motile: average, 0 Hr post thaw
Method: Sperm was collected from a single canine at room temperature into CaniPro Chill 5, available from Minitube, WI, USA, then centrifuged into a pellet and resuspended in a Tris buffer at a pH of 6.8.
Samples were extended to 40×10^6 sperm/ml in 1 ml volumes with the Tris buffer described in Example 1 but set to a pH of 7.2. Ten samples were then stained 4, 4, 5, 5, 7, 8, 8, 9, 9, and 10 μL of Hoechst 33342 and quenched with one of two quenching dyes at a concentration of 50 μM in a second buffer Tris buffer.
Red food dye No. 40 quencher—1 ml Tris at a pH 6.3 was added with red food dye No. 40 into samples stained with 4, 5, 8, 9, 10 μL Hoechst 33342. The red food dye No. 40 was added at a concentration of about 50 μM.
Yellow food dye No. 6 quencher—1 ml Tris at a pH 6.3 was added with yellow food dye No. 6 into samples stained with 4, 5, 7, 8, 9 μL Hoechst 33342. The yellow food dye No. 6 was added at the same concentration as the red food dye No. 40 quencher, at about 50 μM.
5 million cells were sex sorted with a MoFlo SX XPD into 50 mL Falcon tubes having 3.5 mL of a Tris-egg yolk catch fluid, described in Example 1 for both X and Y populations. Two samples were sorted, the red food dye No. 40 quenched treatment with 9 μL Hoechst 33342 and the yellow food dye […] quenched treatment with 7 μL Hoechst 33342.
Straws were then frozen and stored in liquid nitrogen.
Straws were thawed for 30 sec in a 38° C. water bath and their motilities were examined on CASA.
Table 12 illustrates the average motilities and progressive motilities for the sorted treatments. Canine sperm quenched with yellow food dye No. 6 provided about 4.5% more motile sperm in the X population and 6.5% more motile sperm in the Y population. Similarly, the yellow quenched dye provided 7% better progressive motility in the X population and 8% better progressive motility in the Y population.

| Compound | peak quality of combination versus dead quencher alone (sperm [1]; phenol red 620 μM with yellow food dye No. 6 62 μM, each sperm concentration tested) | effect of adding phenol red on split quality (sperm [2]; each Hoechst staining level, with Red 40 or Yellow 6) | Progressive (sperm [3]; Y population) | Height of Peak Divided by Height of Valley (sperm [1]; 150 million cells per mL, Yellow 6 62 μM, Phenol Red 0 μM) | better progressive motility than red quenched (sperm [3]; X population) [%] | more motile sperm than red quenched (sperm [3]; X population) | Motile (sperm [3]; X population) | Progressive (sperm [3]; X population) | better progressive motility than red quenched (sperm [3]; Y population) [%] | more motile sperm than red quenched (sperm [3]; Y population) [%] | Motile (sperm [3]; Y population) | PV (sperm [2]; Bull 1, Hoechst 33342 44 μM, R40 0, Y6 50 μM, PR 0) |
| --- | --- | --- | --- | --- | --- | --- | --- | --- | --- | --- | --- | --- |
| O=S1(=O)OC(c2ccc(O)cc2)(c2ccc(O)cc2)c2ccccc21 [Phenol Red, phenolsulfonphthalein] | gives better peak quality | always improved split quality | – | – | – | – | – | – | – | – | – | – |
| COc1cc(S(=O)(=O)O)c(C)cc1N=Nc1c(O)ccc2cc(S(=O)(=O)O)ccc12 [Red 40, 6-hydroxy-5-[(2-methoxy-5-methyl-4-sulfophenyl)azo]-2-naphthalenesulfonic acid, reference compound] | – | – | 13 | – | – | – | – | – | – | – | – | – |
| O=S(=O)([O-])c1ccc(N=Nc2c(O)ccc3cc(S(=O)(=O)[O-])ccc23)cc1.[Na+].[Na+] [Yellow 6, Disodium 6-hydroxy-5[(4-sulfophenyl)azo]-2-naphthalenesulfononate] | – | – | 21 | 1.30 | 7 | about 4.5% | 24 | 18.5 | 8 | ~6.5 | 25 | 1.20 |
